Measured values published in patent publication US20060110405A1, “Plasma or serum fraction for treatment and prevention of viral infections and related conditions” (priority 2004, published 2006).
In brackets after ≈: the same amount, converted by molar mass.

Assays:
HIV-1 IIIB = test: microbe, parasite or virus in culture; type: cell-based
Method: Antibody depletion experiments were conducted on the product prepared as described in Example 3 by the panning technique as follows. […] The plate was incubated for 3 hours at room temperature. Following the incubation, the antibodies and PBS were removed and 200 μL of blocking solution (0.05% Tween 20, 10 mg/mL BSA in PBS) was added and the plate was incubated overnight at 4° C. Following the overnight incubation, the wells were washed 5 times with wash buffer (PBS plus 0.05% Tween-20). One hundred fifty microliters (150 μL) of the serum product (designated VR-30) was added to each of the wells and the plate was incubated for 2 hours at 37° C.
The serum was then removed and used in the HIV-β-galactosidase attachment assay. The depleted material was evaluated for activity in parallel with undepleted VR-30 (VR-30 Std Treatment) and mock-depleted VR-30 (VR-30 PBS).
The anti-HIV-activity of the initial serum sample is determined by: (1) measuring the protein concentration of the serum fraction using Bradford or Lowery based method for determining protein concentration; (2) determining the activity of the fraction using established in vitro anti-viral assay (attachment assay); (3) assigning a unit of activity to the fraction based on the amount of protein needed to achieve a 50% inhibition of viral replication/infectivity (IC50). This unit can be used as a baseline to track the fold purification obtained through the fractionation process.
Efficacy plates were evaluated by the chemilluminescence detection assay.
All EC50's in FIG. 2 and Table IV are the concentration of total protein (μg/ml) in a given fraction that inhibited viral replication in the attachment assay to 50% of the no compound control.

HeLa LTR β-Gal cells = test: Cellular toxicity in parallel plates, tetrazolium dye (XTT) cell viability end point
Method: The fold increase in activity was calculated as a relative decrease in EC50 to the Week 0 material. Chicago Sky Blue was included as a positive control for inhibition of viral attachment.
HIV Attachment Assay: A crude serum sample dialyzed against Buffer A, the dialyzed 66% ammonium sulfate pellet, and DEAE-Blue fractions 12, 14, 60, 62, 64, and 66 were analyzed for anti-HIV activity in a virus attachment assay. These fractions were diluted in Buffer A to a 2× high test concentration and analyzed for anti-HIV activity in a cell attachment assay that utilizes a galactosidase reporter to measure virus attachment and infection. Sister plates were used to evaluate fraction toxicity using an XTT based end point. Briefly, on the day prior to compound and virus addition, 100 μL of HeLa LTR β-Gal cells at a density of 1×10^4/well in 10% complete DMEM were plated in 96-well flat bottomed plates and incubated overnight at 37° C./5% CO2. Duplicate plates were seeded in order to evaluate efficacy and toxicity in parallel. Following the overnight incubation, selected protein fractions diluted to a high test concentration in culture media and were further diluted in ½ log increments such that a total of 6 concentrations were evaluated.
Medium was removed and 50 μL of the prepared compound dilutions were added in triplicate to both plates. A volume of 50 μL of 10% complete DMEM was added to the virus control wells and 100 μL was added to the cell control wells. Plates were incubated for approximately 15-30 minutes while virus (HIV-1 IIIB) was being prepared. The appropriate titer of virus used in the assay was determined and prepared and 50 μL was then added to the wells containing compound and the virus control wells on the efficacy plate. On the toxicity plate, 50 μL of 10% complete DMEM was added to these same wells. Plates were incubated for 2 hours at 37° C./5% CO2. […] Following the washing steps, 200 μL of 10% complete DMEM was added to all wells and the plates were incubated at 37° C./5% CO2 for 48 hours. The toxicity plates were evaluated by the addition of the tetrazolium dye XTT which is converted by mitochondrial enzymes in viable cells to a soluble formazan product. Efficacy plates were evaluated by the chemilluminescence detection assay.

[1] = system: monocytes and macrophages; settings: antiviral models and cytokine induction from monocytes and macrophages; cited from earlier work

Compound | IC50 (HIV-1 IIIB; Human immunodeficiency virus 1, IIIB, HeLa) | EC50 (HIV-1 IIIB; Human immunodeficiency virus 1, IIIB, HeLa, Table II, total protein for 50% inhibition of HIV attachment and replication, triplicate) | EC50 (HIV-1 IIIB; Human immunodeficiency virus 1, IIIB, HeLa, Table V, total protein inhibiting viral replication to 50% of no compound control, HIV-1 IIIB) | TC50 (HeLa LTR β-Gal cells; Table I, control compounds) | TC50 (HeLa LTR β-Gal cells; Table II, 50% cellular toxicity, XTT) | TC50 (HeLa LTR β-Gal cells; Table V, XTT toxicity plates) | potency relative to imiquimod [1] | IC50 (HIV-1 IIIB; Table I, control compounds)
COc1cc(-c2ccc(/N=N/c3ccc4c(S(=O)(=O)O)cc(S(=O)(=O)O)c(N)c4c3O)c(OC)c2)ccc1/N=N/c1ccc2c(S(=O)(=O)O)cc(S(=O)(=O)O)c(N)c2c1O [Chicago Sky Blue] | 1.3 µg/mL (≈ 1.44 µM) | 100 µg/mL (≈ 111 µM) | 0.6 µg/mL (≈ 0.663 µM) | >10 µg/mL | >10000 µg/mL | >10 µg/mL |  | 
CCOCc1nc2c(N)nc3ccccc3c2n1CC(C)(C)O [Fraction S-28463, 4-Amino-otec,-dimethyl-2-ethoxymethyl-lH-imidazo[4,5-c]quinoline-1-ethanol] |  |  |  |  |  |  | about 100 fold | 
Dextran Sulfate |  |  |  | >25 µg/mL |  |  |  | 0.65 µg/mL
